These results are taken from patent publication US20050148514A1, “Method and composition for treatment of angiogenesis” (priority 2003, published 2005).

Entries after “also recorded” stand apart in the source; their conditions may differ. Where no end group is shown, it is not given here.

The subject of one experiment is MMP-9. The experiment in a line: Gelatin zymography of culture media of MatLyLu tumor cells. Type of experiment: cell-based. The following applies: 50 ug/ml collagen type-I, 500 ug/ml and 1 mg/ml, 72 hrs, serum free. The protocol: (§1) Zymography. Zymography is a technique generally used to analyze the activity of matrix metalloproteinases (MMPs) in biological samples. It involves the electrophoretic separation of proteins under denaturing (Sodium Dodecyl Sulfate (SDS)) but non-reducing conditions through a polyacrylamide gel containing gelatin (for example, 10% gel containing 1 mg/ml gelatin for MMP-9 and MMP-2 assays). The resolved proteins are re-natured by exchanging SDS with a non-ionic detergent such as Triton X-100 and the gel is incubated in an incubation buffer for activation of MMP-2 and MMP-9 (for example at 37° C. for 18 hrs). The gel is stained with Coomassie blue and the MMP-2 and MMP-9 bands may be visualized as clear bands against a blue background (i.e., the MMPs degrade the gelatin and are visualized as clear bands; pro MMP-2 is 68 kDa and pro-MMP-9 is 92 kDa). These bands can be quantified using densitometry.
In the experiment presented in FIG. 1, 2.5×10^5 MatLyLu tumor cells (American Type Culture Collection No.: JHU-5)) were seeded in T-25 flasks containing RPMI with 10% fetal bovine serum (FBS). […]
The media were collected after 72 hours of exposure to the PCK3145 derivative and subjected to gelatin zymography. […] The band intensities were determined using the Image Quant software (version 5.0) from molecular Dynamics. […]

Another experiment relates to proMMP-2. Description: Gelatin zymography of conditioned media of serum-starved HUVEC. The following applies: 300 μg/ml, 24 hours. Type of experiment: cell-based, Human. On the procedure: as §1
Cell culture. Human umbilical vein endothelial cells (HUVEC) and pulmonary aortic smooth muscle cells (PASMC) were obtained from Clonetics and maintained in endothelial cell basal medium-2, (EBM-2; Clonetics) and smooth muscle medium-2 (SmGM-2; Clonetics), respectively. […]
The effect of the PCK3145 derivative (SEQ ID NO.:7) on MMP extracellular levels was assessed by gelatin-zymography in the conditioned media of serum-starved HUVEC. […]

For another experiment, the system named is MAPK/JNK pathway (SRE). The experiment in a line: SEAP gene-reporter assay in U-87 glioma cells, SRE element. Type of experiment: cell-based. The conditions noted are these: alkaline phosphatase activity in extracellular media. On the procedure:
(§2) In order to investigate the potential intracellular pathways triggered by the PCK3145 derivative, a gene-reporter assay using the SEAP (Secreted Alkaline Phosphatase) Mercury Profiling Kit (CLONTECH) was performed in glioma cells (U-87). This assay enables the monitoring of transcription factors that are triggered by a particular experimental condition by assaying the alkaline phosphatase activity in the extracellular media. […] The induction of the MAPK pathway by the PCK3145 derivative is further confirmed by the rapid and transient induction of ERK phosphorylation between 5-10 minutes (FIG. 8B) and is shown to be dose-dependent (FIG. 8C). Finally, the effects of the PCK3145 derivative were also compared to those of a scrambled peptide.

Experiment [1] concerns constitutive secretion pathway. The experiment in a line: SEAP gene-reporter assay in U-87 glioma cells, constitutively expressed SEAP. The experiment is classed as cell-based. On the procedure:
as §2
On the technique in general: Reporter assays use an easily measured gene product as a stand-in for the process of interest.

The test system of the next experiment is ERK. Description: Intrinsic effect on ERK phosphorylation (western blot). The experiment is classed as cell-based. The protocol: as §2
For orientation: In western blotting, separated proteins are transferred to a membrane and probed.

Turning to “EWQTDNCETCTCYET (cysteine pairing not given here)”, the “MMP-9 secreted in the cell culture media, zymography” value in the experiment with MMP-9 is reported as “dose-dependent reduction”. In the experiment on proMMP-2, the “inhibition of VEGF-induced proMMP-2 secretion” value is reported as “approximately 50%”. Also, the “SEAP reporter, MAPK/JNK pathway (SRE)” value in the experiment on MAPK/JNK pathway (SRE) is reported as “triggers significantly; also recorded: extremely strong”. Further, the “secretion of the constitutively expressed SEAP” value in experiment [1] is “inhibited”. In addition, the “dose dependence of induction of ERK phosphorylation” value in the experiment on ERK (dose-response) is “dose-dependent”. Also, the “time of rapid and transient induction of ERK phosphorylation” value with ERK (time-course, no growth factor) was 5 to 10 min.
